IC50 data for 15 compounds are collected here from US12448394B2, “Heterocyclic pyrazole derivatives as type III receptor tyrosine kinase inhibitors” (DEVELOPMENT CENTER FOR BIOTECHNOLOGY, priority 2019, dated 2025).

Test [1] deals with T1, MET kinase (Homo sapiens, UniProt P08581).
T1 construct: purchased SignalChem
The experiment in a line: MET kinase assay (AlphaScreen, counter screen). The class given is biochemical. Particulars: read-out: Ranking of IC50 values, MET. Put shortly:
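IC50 came from duplicate serial dilutions, with AlphaScreen detection of phosphorylated biotin-poly(Glu4:Tyr1). The reaction used 1 ng recombinant MET, 10 µM ATP […], and MOPS pH 7.0/MgCl2 buffer, ran 45 min at 30 °C, and was quenched with EDTA.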

Test [2] has as its system HCC827 NSCLC cell with EGFR exon 19 deletion mutation. The experiment in a line: HCC827 cell proliferation assay (counter screen). The class given is cell-based, human. Particulars: Homo sapiens, HCC827 cells, 72 hours treatment, CellTiter96, read-out: anti-proliferation activity HCC827 EGFR Exon19 del, IC50 ranking. The procedure, abridged: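 HCC827 cells (EGFR exon 19 deletion) were seeded at 8000 cells/well in RPMI1640 with 10% FBS, then exposed to increasing compound concentrations for 72 h at 37 °C. Viability was read by CellTiter96 AQueous One (MTS), absorbance 490 nm after 2–4 h.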
A general note: The purpose of a counterscreen is to sort out artefacts and off-target activity.

The target in test [3] is T2, PDGFRα kinase (Homo sapiens, UniProt P16234).
T2 construct: purchased SignalChem
T2 sequence (P16234 24-1089): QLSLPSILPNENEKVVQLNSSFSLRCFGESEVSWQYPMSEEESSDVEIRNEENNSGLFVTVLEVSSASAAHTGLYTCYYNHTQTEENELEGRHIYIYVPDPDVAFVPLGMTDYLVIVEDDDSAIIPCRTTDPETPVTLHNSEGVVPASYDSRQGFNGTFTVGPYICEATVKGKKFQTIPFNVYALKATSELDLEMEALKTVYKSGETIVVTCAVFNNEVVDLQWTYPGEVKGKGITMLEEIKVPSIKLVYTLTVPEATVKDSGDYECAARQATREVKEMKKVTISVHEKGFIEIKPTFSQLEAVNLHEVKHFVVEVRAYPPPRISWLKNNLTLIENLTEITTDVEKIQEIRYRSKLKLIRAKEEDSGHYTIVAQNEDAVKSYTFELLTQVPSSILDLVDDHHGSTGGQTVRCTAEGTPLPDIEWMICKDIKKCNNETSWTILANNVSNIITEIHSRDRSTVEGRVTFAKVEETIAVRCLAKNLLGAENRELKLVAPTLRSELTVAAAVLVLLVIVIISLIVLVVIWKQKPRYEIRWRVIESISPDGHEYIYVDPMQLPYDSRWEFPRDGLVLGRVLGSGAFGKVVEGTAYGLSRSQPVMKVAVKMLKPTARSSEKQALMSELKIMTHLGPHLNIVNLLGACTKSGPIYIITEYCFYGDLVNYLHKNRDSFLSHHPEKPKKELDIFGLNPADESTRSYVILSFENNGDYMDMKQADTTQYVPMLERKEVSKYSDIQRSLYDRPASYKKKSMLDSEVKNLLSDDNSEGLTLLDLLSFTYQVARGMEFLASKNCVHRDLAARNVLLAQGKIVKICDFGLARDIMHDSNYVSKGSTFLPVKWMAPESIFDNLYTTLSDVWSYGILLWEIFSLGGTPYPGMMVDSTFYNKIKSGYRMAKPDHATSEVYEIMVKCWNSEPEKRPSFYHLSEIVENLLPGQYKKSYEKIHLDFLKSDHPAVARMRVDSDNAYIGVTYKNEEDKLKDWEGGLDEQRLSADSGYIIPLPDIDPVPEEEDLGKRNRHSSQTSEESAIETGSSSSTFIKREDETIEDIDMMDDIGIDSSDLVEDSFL
The experiment in a line: PDGFRα kinase assay (AlphaScreen). In kind it is biochemical. To be noted: read-out: Ranking of IC50 values, PDGFRα. The procedure, abridged:
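IC50 values came from duplicate serial dilutions, with product read by AlphaScreen. The reaction ran 30 min at 30 °C, then EDTA stop: 1.5 ng recombinant enzyme, biotin-poly(Glu4:Tyr1) substrate, 10 μM ATP, 10 mM MOPS pH 7.0, 10 mM MgCl2.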
A general note: Bead proximity is the source of the signal in Alpha formats.

The test system of test [4] is A375 melanoma cell with BRAF V600E mutation. The experiment in a line: A375 cell proliferation assay (counter screen). The class given is cell-based, human. Particulars: Homo sapiens, A-375, A375 cells, 72 hours treatment, CellTiter96, read-out: anti-proliferation activity A375 BRAF V600E, IC50 ranking. The procedure, abridged: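 A375 cells (BRAF V600E) seeded at 2000 cells/well in DMEM with 10% FBS, settled overnight at 37° C, 5% CO2, then exposed to increasing compound concentrations for 72 hours. Viability read by MTS-type CellTiter96 AQueous reagent, absorbance at 490 nm after 2–4 hours.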

Test [5] deals with MV4-11 human acute myeloid leukemia cell with FLT3-ITD mutation. The experiment in a line: MV4-11 cell proliferation assay (CellTiter 96). Particulars: Homo sapiens, MV4-11, 72 h, MV4-11 cells, 72 hours treatment, CellTiter96; read-out: anti-proliferation activity MV4-11 (FLT3-ITD), IC50 ranking. The class given is cell-based. The procedure, abridged:
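Cells seeded at 6500/well in IMDM with 10% heat-inactivated FBS, left overnight at 37 °C, 5% CO2, then exposed to increasing compound concentrations for 72 h. Viability read as absorbance at 490 nm after 2–4 h with CellTiter96 AQueous One reagent.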

In test [6] the test system is Molm-14 human acute myeloid leukemia cell with FLT3-ITD mutation. The experiment in a line: Molm-14 cell proliferation assay (CellTiter 96). To be noted: Homo sapiens; Molm-14 cells, 72 hours treatment, CellTiter96; read-out: anti-proliferation activity Molm-14 (FLT3-ITD), IC50 ranking. In kind it is cell-based. Put shortly: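 Molm-14 (FLT3-ITD AML) cells in RPMI 1640 with 10% heat-inactivated FBS were seeded at 25000 cells/well, incubated overnight at 37° C, 5% CO2, then treated with increasing compound concentrations for 72 hours. Viability was read as absorbance at 490 nm after 2˜4 hours with CellTiter96 AQueous One reagent.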

T1 sequence (P08581 25-1390): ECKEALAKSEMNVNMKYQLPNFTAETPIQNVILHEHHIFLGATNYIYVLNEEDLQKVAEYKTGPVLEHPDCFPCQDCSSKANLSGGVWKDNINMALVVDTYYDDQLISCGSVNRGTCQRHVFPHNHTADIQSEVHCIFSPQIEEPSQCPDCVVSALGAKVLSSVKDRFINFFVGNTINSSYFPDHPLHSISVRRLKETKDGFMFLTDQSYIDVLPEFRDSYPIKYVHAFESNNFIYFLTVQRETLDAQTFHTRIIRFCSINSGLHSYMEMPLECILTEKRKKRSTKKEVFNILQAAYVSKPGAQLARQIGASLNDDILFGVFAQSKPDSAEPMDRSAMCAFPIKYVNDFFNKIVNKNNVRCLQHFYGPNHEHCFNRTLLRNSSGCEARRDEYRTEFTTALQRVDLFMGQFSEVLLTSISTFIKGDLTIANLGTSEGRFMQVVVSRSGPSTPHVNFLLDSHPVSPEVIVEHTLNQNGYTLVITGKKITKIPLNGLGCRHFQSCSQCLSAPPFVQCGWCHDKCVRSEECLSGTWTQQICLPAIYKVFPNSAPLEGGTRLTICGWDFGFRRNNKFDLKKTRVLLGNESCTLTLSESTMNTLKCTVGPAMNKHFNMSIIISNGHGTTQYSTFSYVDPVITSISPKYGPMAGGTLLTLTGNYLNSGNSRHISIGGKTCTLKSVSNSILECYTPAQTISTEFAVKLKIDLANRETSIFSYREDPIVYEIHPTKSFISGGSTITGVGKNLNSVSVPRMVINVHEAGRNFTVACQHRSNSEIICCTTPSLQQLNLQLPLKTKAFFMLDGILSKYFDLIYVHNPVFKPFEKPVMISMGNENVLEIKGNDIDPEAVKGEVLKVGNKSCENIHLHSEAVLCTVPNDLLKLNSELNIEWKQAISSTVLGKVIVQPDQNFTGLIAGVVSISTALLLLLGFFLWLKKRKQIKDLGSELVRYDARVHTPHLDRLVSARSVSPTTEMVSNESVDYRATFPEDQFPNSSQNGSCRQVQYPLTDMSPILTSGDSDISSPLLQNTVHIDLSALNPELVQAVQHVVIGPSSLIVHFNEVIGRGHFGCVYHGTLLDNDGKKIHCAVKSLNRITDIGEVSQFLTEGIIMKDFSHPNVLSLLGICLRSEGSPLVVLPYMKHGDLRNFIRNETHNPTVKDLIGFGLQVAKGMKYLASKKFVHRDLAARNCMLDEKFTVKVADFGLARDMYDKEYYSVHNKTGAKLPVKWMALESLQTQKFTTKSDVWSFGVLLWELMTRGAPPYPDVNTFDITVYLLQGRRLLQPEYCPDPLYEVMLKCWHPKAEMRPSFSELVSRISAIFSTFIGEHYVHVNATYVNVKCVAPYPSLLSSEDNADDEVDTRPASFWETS

Take `Cc1cc(CN2CCOCC2)ccc1-c1cc2c(s1)Cc1c(-c3ccc4cnn(C)c4c3)n[nH]c1-2` [Compound 91, 4-(3-methyl-4-(3-(1-methyl-1H-indazol-6-yl)-1,4-dihydrothieno [2′,3′:4,5]cyclopenta [1,2-c]pyrazol-6-yl)benzyl)morpholine]: the IC50 in test [1] is more than 1000 nM; in test [2], more than 10000 nM; in test [3], 30 to 100 nM; in test [4], more than 10000 nM; in test [5], 100 to 300 nM; in test [6], 100 to 300 nM.
As for `CN1CCN(c2ccc(-c3cc4c(s3)Cc3c(-c5ccc6cnn(C)c6c5)n[nH]c3-4)cn2)CC1` [Compound 85, 3-(1-methyl-1H-indazol-6-yl)-6-(6-(4-methyl-piperazin-1-yl)pyridin-3-yl)-1,4-dihydrothieno [2′,3′:4,5]cyclopenta [1,2-c]pyrazole], the IC50 in test [1] was 300 to 1000 nM; in test [2] it was more than 10000 nM; in test [3], 1 to 10 nM; in test [4], 1000 to 10000 nM; in test [5], less than 30 nM; in test [6] it was 300 to 1000 nM.
With `Cn1ncc2ccc(-c3n[nH]c4c3Cc3sc(-c5ccc(CN6CCNCC6=O)cc5)cc3-4)cc21` [Compound 101, 1-(4-(3-(1-methyl-1H-indazol-6-yl)-1,4-dihydro-thieno[2′,3′:4,5]cyclopenta [1,2-c]pyrazol-6-yl)benzyl)piperazin-2-one], the IC50 in test [1] was more than 1000 nM; in test [2], more than 10000 nM; in test [3], 1 to 10 nM; in test [4], more than 10000 nM; in test [5], less than 30 nM; in test [6] it was less than 30 nM.
For the compound `Cn1ncc2ccc(-c3n[nH]c4c3Cc3sc(-c5ccnc(Cl)c5)cc3-4)cc21` [Compound 86, 6-(2-chloropyridin-4-yl)-3-(1-methyl-1H-indazol-6-yl)-1,4-dihydrothieno [2′,3′:4,5]cyclopenta [1,2-c]pyrazole], the IC50 in test [1] is more than 1000 nM; in test [2] it was more than 10000 nM; in test [3], 10 to 30 nM; in test [4], more than 10000 nM; in test [5] it was 30 to 100 nM; in test [6], 100 to 300 nM.
As to `Cc1ccc(-c2cc3c(s2)Cc2c(-c4ccc5[nH]ncc5c4)n[nH]c2-3)cn1` [Compound 36, 3-(1H-indazol-5-yl)-6-(6-methylpyridin-3-yl)-1,4-dihydrothieno[2′,3′:4,5] cyclopenta[1,2-c]pyrazole], the IC50 in test [1] is more than 1000 nM; in test [2], more than 10000 nM; in test [3] it was 1 to 10 nM; in test [4] it was more than 10000 nM; in test [5], less than 30 nM; in test [6] it was 30 to 100 nM.
`CN(C)Cc1ccc(-c2cc3c(s2)Cc2c(-c4ccc5cnn(C)c5c4)n[nH]c2-3)cn1` [Compound 93, N,N-dimethyl-1-(5-(3-(1-methyl-1H-indazol-6-yl)-1,4-dihydrothieno [2′,3′:4,5]cyclopenta [1,2-c]pyrazol-6-yl)pyridin-2-yl)methanamine]: the IC50 in test [1] is more than 1000 nM; in test [2], more than 10000 nM; in test [3], 100 to 300 nM; in test [4] it was more than 10000 nM; in test [5] it was 30 to 100 nM; in test [6], 100 to 300 nM.
Consider `Cn1ncc2ccc(-c3n[nH]c4c3Cc3sc(-c5ccc(CN6CCOC6=O)cc5)cc3-4)cc21` [Compound 62, 3-(4-(3-(1-methyl-1H-indazol-6-yl)-1,4-dihydro-thieno[2′,3′:4,5]cyclopenta [1,2-c]pyrazol-6-yl)benzyl)oxazolidin-2-one], for which the IC50 was more than 1000 nM in test [1]; more than 10000 nM in test [2]; 10 to 30 nM in test [3]; more than 10000 nM in test [4]; less than 30 nM in test [5]; 30 to 100 nM in test [6].
Regarding `Cc1n[nH]c2cc(-c3n[nH]c4c3Cc3sc(-c5ccc(CN6CCOCC6)cc5)cc3-4)ccc12` [Compound 81, 4-(4-(3-(3-methyl-1H-indazol-6-yl)-1,4-dihydro-thieno[2′,3′:4,5]cyclopenta [1,2-c]pyrazol-6-yl)benzyl)morpholine], the IC50 in test [1] was more than 1000 nM; in test [2], more than 10000 nM; in test [3] it was 1 to 10 nM; in test [4], 1000 to 10000 nM; in test [5] it was 100 to 300 nM; in test [6], 300 to 1000 nM.
As to `Cc1ccc(-c2cc3c(s2)Cc2c(-c4ccc5cn[nH]c5c4)n[nH]c2-3)cn1` [Compound 30, 3-(1H-indazol-6-yl)-6-(6-methylpyridin-3-yl)-1,4-dihydrothieno[2′,3′:4,5] cyclopenta[1,2-c]pyrazole], the IC50 is more than 1000 nM in test [1]; more than 10000 nM in test [2]; 1 to 10 nM in test [3]; more than 10000 nM in test [4]; 30 to 100 nM in test [5]; 30 to 100 nM in test [6].
Regarding `Cn1ncc2ccc(-c3n[nH]c4c3Cc3sc(-c5ccc(N)nc5)cc3-4)cc21` [Compound 92, 5-(3-(1-methyl-1H-indazol-6-yl)-1,4-dihydro-thieno[2′,3′:4,5]cyclopenta [1,2-c]pyrazol-6-yl) pyridin-2-amine], the IC50 in test [1] is more than 1000 nM; in test [2] it was more than 10000 nM; in test [3] it was 1 to 10 nM; in test [4], 1000 to 10000 nM; in test [5] it was less than 30 nM; in test [6], less than 30 nM.
For the compound `CN1CCN(Cc2ccc(-c3cc4c(s3)Cc3c(-c5ccc6cn[nH]c6c5)n[nH]c3-4)cc2)CC1` [Compound 83, 3-(1H-indazol-6-yl)-6-(4-((4-methylpiperazin-1-yl)methyl)phenyl)-1,4-dihydrothieno[2′,3′:4,5] cyclopenta[1,2-c]pyrazole], the IC50 in test [1] is 300 to 1000 nM; in test [2], more than 10000 nM; in test [3], 1 to 10 nM; in test [4], more than 10000 nM; in test [5], less than 30 nM; in test [6], less than 30 nM.
As for `CN(C)Cc1ccc(-c2cc3c(s2)Cc2c(-c4ccc5cnn(C)c5c4)n[nH]c2-3)cc1` [Compound 94, N,N-dimethyl-1-(4-(3-(1-methyl-1H-indazol-6-yl)-1,4-dihydrothieno [2′,3′:4,5]cyclopenta [1,2-c]pyrazol-6-yl)phenyl)methanamine], the IC50 in test [1] is 300 to 1000 nM; in test [2], 1000 to 10000 nM; in test [3], 1 to 10 nM; in test [4] it was 1000 to 10000 nM; in test [5], less than 30 nM; in test [6], less than 30 nM.
In the case of `Cn1ncc2ccc(-c3n[nH]c4c3Cc3sc(-c5ccc(CN6CCOCC6)cc5OC(F)(F)F)cc3-4)cc21` [Compound 90, 4-(4-(3-(1-methyl-1H-indazol-6-yl)-1,4-dihydro-thieno[2′,3′:4,5]cyclopenta [1,2-c]pyrazol-6-yl)-3-(trifluoromethoxy)benzyl) morpholine], the IC50 was more than 1000 nM in test [1]; more than 10000 nM in test [2]; 100 to 300 nM in test [3]; more than 10000 nM in test [4]; 300 to 1000 nM in test [5]; 300 to 1000 nM in test [6].
`COc1ccc(-c2cc3c(s2)Cc2c(-c4ccc5cn[nH]c5c4)n[nH]c2-3)cn1` [Compound 2, 3-(1H-indazol-6-yl)-6-(6-methoxypyridin-3-yl)-1,4-dihydrothieno[2′,3′:4,5] cyclopenta[1,2-c]pyrazole]: the IC50 was more than 1000 nM in test [1]; more than 10000 nM in test [2]; 10 to 30 nM in test [3]; more than 10000 nM in test [4]; 30 to 100 nM in test [5]; 30 to 100 nM in test [6].
In the case of `CN1CCN(c2cc(-c3cc4c(s3)Cc3c(-c5ccc6cnn(C)c6c5)n[nH]c3-4)ccn2)CC1` [Compound 87, 3-(1-methyl-1H-indazol-6-yl)-6-(2-(4-methyl-piperazin-1-yl)pyridin-4-yl)-1,4-dihydrothieno [2′,3′:4,5]cyclopenta [1,2-c]pyrazole], the IC50 in test [1] is 300 to 1000 nM; in test [2] it was more than 10000 nM; in test [3] it was 1 to 10 nM; in test [4] it was more than 10000 nM; in test [5] it was 30 to 100 nM; in test [6], 300 to 1000 nM.
